Source: patent publication US6103709A (priority 1998, dated 2000)

What was measured:
[1] = system: vitamin D-deficient chick; test: Intestinal Ca2+ absorption (ICA) in vitamin D-deficient chick; format: in vivo; conditions: i.m.; for Classic Vit D Responses ICA: relative to 100 pmol 1α,25(OH)2 D3 = 100%, 12 h before assay; for ICA (in words): vitamin D-deficient chick
Experimental: A primary fundamental physiological property of vitamin D and particularly 1α,25(OH)2 D3 is its ability to stimulate the intestinal absorption of calcium and facilitate the availability of dietary calcium to the organism. Intestinal absorption of the calcium is measured by the intestinal calcium absorption (ICA) assay, developed in the model of vitamin-D deficient chicks. The ICA assay was used to determine the relative capability of the tested analog to stimulate intestinal Ca^2+ absorption.
(§1) Results of the testing of the analogs of the invention in vivo by the ICA and IBM assays are shown in FIG. 9 which illustrates the capability of analogs LO, EV and HR to stimulate intestinal Ca^2+ absorption (ICA) and bone Ca^2+ mobilizing activity (BCM). In this study, the analogs of 1α,25(OH) were given i.m. to vitamin D-deficient chicks 12 hours before the assay began. The activity produced by 100 pmol of 1α,25(OH)2 D3 was set to be 100% for both ICA and BCM. The dose of the analogs required to achieve a biological response for either ICA or BCM equivalent to the 100 pmol dose of 1α,25(OH)2 D3 was calculated and converted to a percentage. Results are expressed as mean +SE of groups of seven chicks. Each assay included a negative control (-D), that is no vitamin D was present, and a positive control, where vitamin D3 (+D3) was present in 3.25 nmol. […] 1α,25(OH)2 D3 and analogs LO [14α,15α-methano-1α,25(OH)2 D3 ], EV [22-(m(dimethylhydroxymethyl)phenyl)-23,24,25,26,27-pentanor-1α-OH-D3 ] and HR [(22R)-1,25(OH)2 -22,23-diene-D3 ] were administered in 0.0065, 0.065, 0.65 and 6.5 nmol as shown.
(§2) In Vivo Assays of Intestinal Calcium Absorption and Bone Calcium Mobilization
(§3) This example describes assays used for determination of analogs biological activity in intestinal calcium absorption (ICA) and bone calcium mobilization (BCM) assays.
(§4) ICA and BCM were measured in vivo in the vitamin D-deficient chick model system according to Biochem. Pharmacol., 18: 2347 (1969).
(§5) Twelve hours before assay, the chickens, which had been placed on a zero-calcium diet 48 h before assay, were injected intramuscularly with the vitamin metabolite 1α,25(OH)2 D3 or analog (1-10,000 pmoles) dissolved in 0.1 mL of ethanol/1,2-propanediol (1:1, v/v). At the time of assay, 4.0 mg of ^40 Ca^2+ +5 μCi of ^45 Ca^2+ (New England Nuclear) were placed in the duodenum of the birds lightly anesthetized with ether. After 30 min, the birds were decapitated and the blood was collected.
The radioactivity content, which is a measure of ICA, of 0.2 mL of serum was measured in a liquid scintillation counter (Beckman LS8000) to determine the amount of ^45 Ca^2+ absorbed.

rapid responses (VDRmem) = test: Antagonist function (summary classification); conditions: Yes/No, Tables 1 and 6
VDRmem = test: Rapid response (summary classification); conditions: Yes/No, Tables 1 and 6
[2] = system: vitamin D-deficient chick; test: Bone Ca2+ mobilizing activity (BCM) in vitamin D-deficient chick; format: in vivo; conditions: i.m.; for Classic Vit D Responses BCM: relative to 100 pmol 1α,25(OH)2 D3 = 100%, 12 h before assay; for BCM (in words): vitamin D-deficient chick
Experimental: The bone calcium mobilizing (BCM) assay is also conducted in the vitamin D-deficient chick. The BCM assay determines the relative ability of the tested analog to mobilize bone calcium. The natural hormone 1α,25(OH)2 D3 is very potent in the BCM assay. For example, when 1α,25(OH)2 D3 in inappropriate amounts are used as a drug in human patients, the patient may become hypercalcemic and eventually hypercalciuria with nephrolithiasis and renal failure may develop. The BCM assay was used to determine the relative activity of the analogs of the invention to stimulate bone Ca^2+ mobilization.
as §1, §2, §3, §4, §5
BCM activity was estimated from the increase of total serum calcium concentration, as determined by atomic absorption spectrophotometry.

VDRnuc = test: Genomic response (summary classification); conditions: Yes/No, Tables 1 and 6

Compound: C=C1/C(=C\C=C2/CCC[C@]3(C)[C@@H]([C@H](C)Cc4cccc(O)c4)CC[C@@H]23)C[C@@H](O)C[C@@H]1O [DE]
- Classic Vit D Responses ICA [1]: 0.3%
- ICA (in words) [1]: show stimulating activity in both ICA and BCM assays
- Antagonist (rapid responses (VDRmem)): No
- Rapid Response (VDRmem): Yes
- Classic Vit D Responses BCM [2]: 1.0%
- BCM (in words) [2]: show stimulating activity in both ICA and BCM assays
- Genomic Response (VDRnuc): Yes

Compound: C=C1/C(=C\C=C2/CCC[C@]3(C)[C@@H]([C@H](C)Cc4ccc(O)cc4)CC[C@@H]23)C[C@@H](O)C[C@@H]1O [DF]
- Classic Vit D Responses ICA [1]: 0.04%
- Antagonist (rapid responses (VDRmem)): No
- Rapid Response (VDRmem): Yes
- Classic Vit D Responses BCM [2]: 0.08%
- Genomic Response (VDRnuc): Yes

Compound: C=C1/C(=C\C=C2/CCC[C@]3(C)[C@@H]([C@H](C)Cc4cccc(C(C)(C)O)c4)CC[C@@H]23)C[C@@H](O)C[C@@H]1O [EV]
- Classic Vit D Responses ICA [1]: 30%
- ICA (in words) [1]: show stimulating activity in both ICA and BCM assays
- Antagonist (rapid responses (VDRmem)): No
- Rapid Response (VDRmem): Yes
- Classic Vit D Responses BCM [2]: 8%
- BCM (in words) [2]: show stimulating activity in both ICA and BCM assays
- Genomic Response (VDRnuc): Yes

Compound: CC1=C(/C=C\C2=CCC[C@@]3(C)[C@@H]2CC[C@@H]3[C@H](C)CCCC(C)(C)O)C[C@@H](O)C[C@@H]1O [GF]
- Classic Vit D Responses ICA [1]: 1.5%
- Antagonist (rapid responses (VDRmem)): No
- Rapid Response (VDRmem): Yes
- Classic Vit D Responses BCM [2]: < 0.1%
- Genomic Response (VDRnuc): Yes

Compound: C=C1/C(=C\C=C2/CCC[C@]3(C)[C@@H]([C@H](C)C=C=CC(C)(C)O)CC[C@@H]23)C[C@@H](O)C[C@@H]1O [HQ]
- Classic Vit D Responses ICA [1]: 2.5%
- Antagonist (rapid responses (VDRmem)): No
- Rapid Response (VDRmem): Yes
- Classic Vit D Responses BCM [2]: 1.0%
- Genomic Response (VDRnuc): Yes

Compound: C=C1/C(=C\C=C2/CCC[C@]3(C)[C@@H]([C@H](C)C=C=CC(C)(C)O)CC[C@@H]23)C[C@@H](O)C[C@@H]1O [HR]
- Classic Vit D Responses ICA [1]: 12%
- Antagonist (rapid responses (VDRmem)): No
- Rapid Response (VDRmem): Yes
- Classic Vit D Responses BCM [2]: 0.6%
- Genomic Response (VDRnuc): Yes

Compound: CC1=C(C=C=C2CCC[C@]3(C)[C@@H]([C@H](C)CCCC(C)(C)O)CC[C@@H]23)C[C@@H](O)C[C@@H]1O [JV]
- Classic Vit D Responses ICA [1]: 0.02%
- Antagonist (rapid responses (VDRmem)): No
- Rapid Response (VDRmem): Yes
- Classic Vit D Responses BCM [2]: 0.02%
- Genomic Response (VDRnuc): Yes

Compound: CC1=C(C=C=C2CCC[C@]3(C)[C@@H]([C@H](C)CCCC(C)(C)O)CC[C@@H]23)C[C@@H](O)C[C@@H]1O [JW]
- Classic Vit D Responses ICA [1]: 0.05%
- Antagonist (rapid responses (VDRmem)): No
- Rapid Response (VDRmem): Yes
- Classic Vit D Responses BCM [2]: 0.3%
- Genomic Response (VDRnuc): Yes

Compound: C=C1CC[C@H](O)C/C1=C/C=C1\CCC[C@]2(C)[C@@H]([C@H](C)Cc3ccc(O)cc3)CC[C@@H]12 [JX]
- Classic Vit D Responses ICA [1]: < 0.05%
- Antagonist (rapid responses (VDRmem)): No
- Rapid Response (VDRmem): Yes
- Classic Vit D Responses BCM [2]: < 0.05%
- Genomic Response (VDRnuc): Yes

Compound: C=C1CC[C@H](O)C/C1=C/C=C1\CCC[C@]2(C)[C@@H]([C@H](C)Cc3cccc(O)c3)CC[C@@H]12 [JY]
- Classic Vit D Responses ICA [1]: < 0.05%
- Antagonist (rapid responses (VDRmem)): No
- Rapid Response (VDRmem): Yes
- Classic Vit D Responses BCM [2]: < 0.05%
- Genomic Response (VDRnuc): Yes

Compound: C=C1/C(=C\C=C2/CCC[C@]3(C)[C@@H]([C@H](C)CCCC(C)(C)O)C[C@@H]4C[C@@]243)C[C@@H](O)C[C@@H]1O [LO]
- Classic Vit D Responses ICA [1]: 30%
- ICA (in words) [1]: reasonable stimulator of intestinal Ca^2+ absorption (ICA)
- Antagonist (rapid responses (VDRmem)): No
- Rapid Response (VDRmem): Yes
- BCM (in words) [2]: highly effective stimulator of bone Ca^2+ mobilizing activity (BCM)
- Genomic Response (VDRnuc): Yes
